Some test systems named below: SK-MEL-2 melanoma; NCI/ADR-RES ovarian; ACHN renal; OVCAR-3 ovarian; TK-10 renal; SNB-75 CNS; UACC-257 melanoma; A498 renal; HOP-92 NSCLC; UO-31 renal.
What all share (assay): inhibition of tumour cell growth, NCI panel, 48 h

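Cells were grown in 96-well plates and exposed to each compound for 48 hours at five concentrations; endpoints were interpolated linearly between bracketing concentrations, or set to the highest concentration if not reached. GI50 marks 50% less growth. Definition used: TGI = concentration required for complete inhibition of growth.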

Consider `C/C1=C/C(=O)O[C@@H]2C[C@@H](CC[C@H](C)/C=C\C=C\CC1)O[C@@](O)([C@@H]1CSC(=O)N1CO)C2`, for which the GI50 in the experiment with SK-MEL-2 melanoma was 0.0796 µM; in the experiment with NCI/ADR-RES ovarian, 1.2 µM; with ACHN renal, 0.0403 µM; in the experiment with OVCAR-3 ovarian, 0.122 µM; in the experiment with TK-10 renal, 0.0921 µM; with SNB-75 CNS, 0.0151 µM. For the same compound, the GI50 with UACC-257 melanoma was 0.42 µM; in the experiment on A498 renal, 0.0183 µM; with HOP-92 NSCLC, 0.0165 µM; with UO-31 renal, 0.0241 µM. In addition, the TGI is 34.9 µM with SK-MEL-2 melanoma; 46.1 µM with NCI/ADR-RES ovarian; greater than 100 µM with ACHN renal; 0.512 µM with OVCAR-3 ovarian; 0.341 µM in the experiment on TK-10 renal; 0.0523 µM with SNB-75 CNS. Besides, the TGI in the experiment on UACC-257 melanoma turned out to be 16 µM; in the experiment with A498 renal it was 0.0724 µM; in the experiment with HOP-92 NSCLC, 0.0614 µM; in the experiment on UO-31 renal, 0.132 µM.
For `O=C1/C=C/[C@@H](O)[C@@H]2C[C@@H](O)C[C@H]2/C=C/CCC[C@H](CCc2ccc(C(F)(F)F)cc2)O1`, the GI50 is 0.349 µM with SK-MEL-2 melanoma; 0.191 µM in the experiment with NCI/ADR-RES ovarian; 0.41 µM in the experiment with ACHN renal; 0.264 µM with OVCAR-3 ovarian; 0.449 µM in the experiment on TK-10 renal; 0.0544 µM with SNB-75 CNS. Further, the GI50 with UACC-257 melanoma was 0.182 µM; in the experiment on A498 renal, 0.0533 µM; in the experiment on HOP-92 NSCLC, 0.227 µM; in the experiment on UO-31 renal, 0.259 µM. In addition, the TGI was 1.41 µM in the experiment with SK-MEL-2 melanoma; 9.58 µM with NCI/ADR-RES ovarian; greater than 100 µM with ACHN renal; 0.69 µM in the experiment on OVCAR-3 ovarian; 5.47 µM with TK-10 renal; 32.5 µM in the experiment on SNB-75 CNS. The values for the TGI in the experiment on UACC-257 melanoma, in the experiment with A498 renal and in the experiment with HOP-92 NSCLC were greater than 40.2 µM, 0.277 µM and 0.89 µM, respectively.
For the compound `NC(=O)C1c2ccccc2C=Cc2ccccc21`, the GI50 in the experiment with SK-MEL-2 melanoma, in the experiment on NCI/ADR-RES ovarian, with ACHN renal, in the experiment with OVCAR-3 ovarian, with TK-10 renal and in the experiment with SNB-75 CNS was greater than 100 µM each time. The GI50 was greater than 100 µM with UACC-257 melanoma, greater than 100 µM in the experiment with A498 renal, 51.6 µM in the experiment with HOP-92 NSCLC and greater than 100 µM in the experiment with UO-31 renal. Further, the TGI with SK-MEL-2 melanoma, with NCI/ADR-RES ovarian, with ACHN renal, with OVCAR-3 ovarian, with TK-10 renal and in the experiment with SNB-75 CNS was greater than 100 µM each time. Besides, the TGI with UACC-257 melanoma, in the experiment on A498 renal, with HOP-92 NSCLC and in the experiment with UO-31 renal was greater than 100 µM in each case.
As to `CCCCCCCCCCCCNC(=O)[C@H]1CSC(c2cc3ccccc3s2)N1` (some centres not stated), the GI50 in the experiment with SK-MEL-2 melanoma is 1.96 µM; with NCI/ADR-RES ovarian it was 1.66 µM; in the experiment with ACHN renal it was 4.9 µM; with OVCAR-3 ovarian, 3.79 µM; with TK-10 renal, 1.27 µM; with SNB-75 CNS it was 0.599 µM. Besides, the GI50 in the experiment on UACC-257 melanoma was 4.12 µM; in the experiment with A498 renal, 10.2 µM; with HOP-92 NSCLC, 5.41 µM; with UO-31 renal, 4.16 µM. Further, the TGI with SK-MEL-2 melanoma amounted to 6.49 µM; in the experiment with NCI/ADR-RES ovarian, 6.83 µM; in the experiment with ACHN renal, 9.29 µM; with OVCAR-3 ovarian it was 9.5 µM; with TK-10 renal, 4.88 µM; with SNB-75 CNS, 1.12 µM. The TGI came out at 8.6 µM in the experiment on UACC-257 melanoma, 26.3 µM with A498 renal, 10.5 µM with HOP-92 NSCLC and 8.37 µM in the experiment with UO-31 renal.
As for `CCN(CC)c1ccc(C2CC(c3cc(OC)c(OC)c(OC)c3)=NN2)cc1` (configuration not stated), the GI50 was 6.6 µM in the experiment on SK-MEL-2 melanoma; 0.44 µM in the experiment on NCI/ADR-RES ovarian; 1.55 µM in the experiment on ACHN renal; 1.88 µM in the experiment on OVCAR-3 ovarian; 36 µM in the experiment on TK-10 renal; 0.372 µM in the experiment on SNB-75 CNS. In addition, the GI50 with UACC-257 melanoma is 20.2 µM; with A498 renal it was 0.443 µM; in the experiment on HOP-92 NSCLC, 1.55 µM; in the experiment with UO-31 renal, 1.5 µM. Also, the TGI is greater than 95.5 µM with SK-MEL-2 melanoma; greater than 100 µM in the experiment with NCI/ADR-RES ovarian; greater than 100 µM in the experiment with ACHN renal; greater than 100 µM in the experiment on OVCAR-3 ovarian; greater than 100 µM in the experiment on TK-10 renal; greater than 100 µM in the experiment on UACC-257 melanoma. The TGI in the experiment on A498 renal is 2.44 µM; in the experiment on HOP-92 NSCLC, 31.1 µM; with UO-31 renal, greater than 100 µM.
Turning to `CN[C@@H](C)C(=O)N[C@H]1CN(C(=O)CC(C)C)CC[C@H]2CC[C@@H](C(=O)NC(c3ccccc3)c3ccccc3)N2C1=O`, the GI50 is 43.7 µM with SK-MEL-2 melanoma; greater than 100 µM in the experiment with NCI/ADR-RES ovarian; greater than 100 µM with ACHN renal; greater than 89.7 µM in the experiment on OVCAR-3 ovarian; greater than 100 µM in the experiment with TK-10 renal; 15.7 µM in the experiment on SNB-75 CNS. The GI50 in the experiment on UACC-257 melanoma is greater than 74.3 µM; in the experiment with A498 renal it was greater than 42.7 µM; in the experiment with UO-31 renal, greater than 100 µM. Moreover, the TGI in the experiment with SK-MEL-2 melanoma, in the experiment with NCI/ADR-RES ovarian, in the experiment on ACHN renal, with OVCAR-3 ovarian, in the experiment on TK-10 renal and in the experiment on SNB-75 CNS was greater than 100 µM throughout. Besides, the TGI in the experiment on UACC-257 melanoma was greater than 100 µM; in the experiment on A498 renal it was greater than 100 µM; in the experiment with HOP-92 NSCLC, greater than 45.4 µM; in the experiment on UO-31 renal, greater than 100 µM.
Consider `Cc1cccc(-c2nn3c(c2-c2ccnc4ccc(C(N)=O)cc24)CCC3)n1`, for which the GI50 with SK-MEL-2 melanoma, with NCI/ADR-RES ovarian, in the experiment with ACHN renal, in the experiment with OVCAR-3 ovarian, in the experiment on TK-10 renal and with SNB-75 CNS was greater than 100 µM throughout. In addition, the GI50 in the experiment on UACC-257 melanoma is greater than 100 µM; in the experiment with A498 renal, 97.5 µM; in the experiment with HOP-92 NSCLC it was greater than 100 µM; in the experiment with UO-31 renal, greater than 100 µM. For the same compound, the TGI in the experiment with SK-MEL-2 melanoma, in the experiment with NCI/ADR-RES ovarian, in the experiment with ACHN renal, in the experiment on OVCAR-3 ovarian, in the experiment on TK-10 renal and in the experiment on SNB-75 CNS was greater than 100 µM in each case. Besides, the TGI in the experiment on UACC-257 melanoma, in the experiment on A498 renal, in the experiment with HOP-92 NSCLC and in the experiment on UO-31 renal was greater than 100 µM in each case.

(Values after PubChem BioAssay (NCI).)
